One molecule from patent US8367648B2, “Substituted 16,17-annellated steroid compounds for use in womens healthcare” (MSD OSS B.V., priority 2009, dated 2013) can be followed below.

For data set [1], the target named is T1, progesterone receptor B (PR-B) (Homo sapiens, UniProt P06401).
T1 sequence (P06401 1-933): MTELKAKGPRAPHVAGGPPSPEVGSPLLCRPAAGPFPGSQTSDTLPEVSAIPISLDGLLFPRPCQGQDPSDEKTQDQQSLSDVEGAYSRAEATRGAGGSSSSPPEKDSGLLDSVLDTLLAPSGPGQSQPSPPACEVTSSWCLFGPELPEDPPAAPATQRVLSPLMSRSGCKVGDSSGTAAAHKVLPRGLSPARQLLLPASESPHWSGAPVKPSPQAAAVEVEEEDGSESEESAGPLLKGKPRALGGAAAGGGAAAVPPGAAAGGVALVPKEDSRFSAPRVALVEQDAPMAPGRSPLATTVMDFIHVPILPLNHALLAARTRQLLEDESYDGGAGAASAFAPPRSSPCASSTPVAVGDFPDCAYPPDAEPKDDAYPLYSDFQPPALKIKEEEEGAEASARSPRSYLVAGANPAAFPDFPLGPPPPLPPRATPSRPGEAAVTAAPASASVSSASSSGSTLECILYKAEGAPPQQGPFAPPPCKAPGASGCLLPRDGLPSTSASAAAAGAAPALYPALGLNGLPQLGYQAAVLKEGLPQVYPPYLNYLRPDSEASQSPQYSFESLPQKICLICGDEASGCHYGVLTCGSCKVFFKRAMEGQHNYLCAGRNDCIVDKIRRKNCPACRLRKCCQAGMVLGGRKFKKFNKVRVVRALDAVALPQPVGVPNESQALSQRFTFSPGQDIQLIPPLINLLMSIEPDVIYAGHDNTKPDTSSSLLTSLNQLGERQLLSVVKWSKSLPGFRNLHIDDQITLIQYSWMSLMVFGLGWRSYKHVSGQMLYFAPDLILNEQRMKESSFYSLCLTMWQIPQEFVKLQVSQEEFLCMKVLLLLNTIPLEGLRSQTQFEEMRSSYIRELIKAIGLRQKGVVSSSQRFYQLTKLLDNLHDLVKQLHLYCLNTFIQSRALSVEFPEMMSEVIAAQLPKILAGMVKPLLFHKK
The experiment in a line: In vitro nuclear receptor profile, PR-B agonism. The format is cell-based.

In data set [2] the test system is LH/FSH, uterine tissue, vaginal tissue, cholesterol metabolism, bone. In words: 4-week multiple dose study in ovariectomized female rats. The format is in vivo, rat.
Data set [3] addresses T1, progesterone receptor B (PR-B). In words: In vitro nuclear receptor profile, PR-B antagonism. It is filed as cell-based.
Data set [4] in a line: Solubility in water. As to conditions: in comparison to Org 41621. It is filed as physicochemical. An excerpt:
As the diseases in which the compounds can be used are in the area of women's health care the vaginal route of administration is also contemplated. A medicine can be formulated in the form of a device for vaginal drug delivery such as in admixture with a flexible polymer for a removable intrauterine device or a removable vaginal device, for example in the form of a ring. Polymers or other additives can also be used for a parenteral implant, such as a subcutaneous implant for extended release of a drug according to the invention. As such, extended release formulations or other formulations aimed at particular absorption profiles are also within the scope of the invention. […] This offers an advantage for uses in the manufacture of medicines wherein higher solubility is desirable, such as a drinkable or injectable formulation.

The target in data set [5] is T2, ERα (Homo sapiens, UniProt P03372).
T2 sequence (P03372 1-595): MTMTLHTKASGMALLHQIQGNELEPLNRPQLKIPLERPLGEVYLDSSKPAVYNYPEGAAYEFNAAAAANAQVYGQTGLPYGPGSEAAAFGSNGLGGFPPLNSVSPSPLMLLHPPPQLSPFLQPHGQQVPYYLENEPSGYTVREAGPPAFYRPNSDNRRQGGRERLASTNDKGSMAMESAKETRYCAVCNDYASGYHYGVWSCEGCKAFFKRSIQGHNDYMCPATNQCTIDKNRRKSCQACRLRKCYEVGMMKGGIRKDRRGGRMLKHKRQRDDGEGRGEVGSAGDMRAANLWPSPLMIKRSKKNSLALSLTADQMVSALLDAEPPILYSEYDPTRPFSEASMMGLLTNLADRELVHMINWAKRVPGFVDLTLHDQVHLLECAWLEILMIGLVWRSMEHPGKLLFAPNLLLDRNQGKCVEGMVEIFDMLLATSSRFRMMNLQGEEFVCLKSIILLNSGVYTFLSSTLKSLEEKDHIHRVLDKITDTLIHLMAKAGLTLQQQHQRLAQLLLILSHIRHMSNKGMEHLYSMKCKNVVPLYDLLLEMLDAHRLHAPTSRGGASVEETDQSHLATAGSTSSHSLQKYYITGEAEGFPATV
The experiment in a line: In vitro nuclear receptor profile, ERα antagonism. The format is cell-based. As to conditions: antagonist efficacy.

Data set [6] concerns the target T3, androgen receptor (AR) (Homo sapiens, UniProt P10275).
T3 sequence (P10275 1-920): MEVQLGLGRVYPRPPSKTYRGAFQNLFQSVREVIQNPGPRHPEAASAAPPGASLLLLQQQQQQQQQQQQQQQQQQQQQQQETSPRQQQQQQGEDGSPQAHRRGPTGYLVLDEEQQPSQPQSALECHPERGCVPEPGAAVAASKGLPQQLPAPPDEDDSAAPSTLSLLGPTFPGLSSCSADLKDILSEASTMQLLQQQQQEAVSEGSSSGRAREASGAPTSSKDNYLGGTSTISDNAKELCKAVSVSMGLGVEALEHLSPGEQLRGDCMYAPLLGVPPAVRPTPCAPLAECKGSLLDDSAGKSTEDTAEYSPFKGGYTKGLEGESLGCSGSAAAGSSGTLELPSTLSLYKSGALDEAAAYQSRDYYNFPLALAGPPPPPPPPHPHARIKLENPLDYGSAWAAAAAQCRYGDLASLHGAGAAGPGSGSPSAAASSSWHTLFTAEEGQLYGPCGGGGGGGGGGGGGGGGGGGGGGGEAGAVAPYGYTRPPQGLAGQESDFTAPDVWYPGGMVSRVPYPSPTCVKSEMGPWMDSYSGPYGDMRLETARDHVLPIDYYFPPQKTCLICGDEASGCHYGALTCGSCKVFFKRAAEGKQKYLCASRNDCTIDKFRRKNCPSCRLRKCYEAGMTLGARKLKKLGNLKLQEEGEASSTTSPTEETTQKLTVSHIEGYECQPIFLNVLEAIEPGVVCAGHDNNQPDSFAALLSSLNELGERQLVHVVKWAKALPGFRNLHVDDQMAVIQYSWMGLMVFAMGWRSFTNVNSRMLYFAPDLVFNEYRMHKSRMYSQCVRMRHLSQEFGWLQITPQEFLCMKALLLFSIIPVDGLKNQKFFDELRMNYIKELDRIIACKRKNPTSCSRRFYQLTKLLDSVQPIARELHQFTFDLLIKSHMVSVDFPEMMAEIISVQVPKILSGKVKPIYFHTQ
In words: Androgen receptor antagonism in vitro. It is filed as cell-based. As to conditions: antagonist; read-out: IC50 as antagonist for the androgen receptor (AR).

Broadly, the EC50 is the midpoint of the concentration-response curve. Usually IC50 stands for the point on the concentration scale where inhibition reaches its midpoint. In data set [1] (agonist efficacy), `CCC[C@@H]1Cc2cc(O)ccc2[C@H]2CC[C@@]3(C)[C@@H](C[C@H]4CCC(=O)C[C@]43O)[C@H]12` [Compound 10, (7α,16β,17α)-3,17-dihydroxy-7-propyl-16,24-cyclo-19,21-dinorchola-1,3,5(10)-trien-22-one] returned a PR-B ago eff of 0.49. Further, the “activity at PR-B in words” value in data set [1] (nanomolar activity) is “partial (ant)agonist”. Further, in data set [1] (read-out: EC50 for progesterone receptor B (PR-B)), the concentration for a half-maximal effect (EC50) stood at 3.8 nM. Moreover, the “behaviour on vaginal tissue, cholesterol metabolism and bone (bone mineral density, osteocalcin)” value in data set [2] was “behaves as an estrogen receptor agonist”. Moreover, the “circulating levels of LH and FSH” value in data set [2] (4 weeks, oral and subcutaneous in gelatine/mannitol) is given as “effectively suppress”. Besides, in data set [2] (daily oral dosing for 4 weeks, FIG. 1), the “stimulation of rat uterine tissue (uterine weight)” value is given as “only mildly stimulates”. In data set [3] (antagonist efficacy), this molecule registered a PR-B ant anteff of 0.55. The 50% inhibitory concentration (IC50) is 3.7 nM in data set [3] (antagonist mode, read-out: PR-B ant IC50) and 125 nM in data set [6]. The solubility in water result in data set [4] is “very well soluble in water”. In data set [5], this molecule had an ERα ant anteff of 0.47.
